# Measurements as given in US6403589B1, “Method of treating pain with draflazine-analogues” (Janssen Pharmaceutica N.V., priority 1997, dated 2002).
# How the values were obtained:
# [1] = tested on: patients with unstable angina; details: during the 24 hour observation period; draflazine treated patients with unstable angina; cited from earlier work
# [2] = tested on: mice; details: acute pain stimulus; cited from earlier work
# [3] = tested on: rabbits; details: acute pain stimulus; cited from earlier work
# [4] = tested on: dogs; details: acute pain stimulus; cited from earlier work
smiles,measurement,setting,value
"CNC(=O)C1CN(CC(=O)Nc2c(Cl)cccc2C(C)=O)CCN1CCCC=C(c1ccc(F)cc1)c1ccc(F)cc1.O=C(O)C(=O)O.O=C(O)C(=O)O (racemic) [Compound 18, (±)-N-(2-acetyl-6-chlorophenyl)-4-[5,5-bis(4-fluorophenyl)-4-pentenyl]-3-[(methylamino)carbonyl]-1-piperazineacetamide ethanedioate (1:2)]",melting point,,140 °C
"CNC(=O)C1CN(CC(=O)Nc2c(C)cc(C)cc2C)CCN1CCCC(c1ccc(F)cc1)c1ccc(F)cc1 (stereo not shown) [Compound 1, 4-[4,4-bis(4-fluorophenyl)butyl]-3-[(methylamino)-carbonyl]-N-(2,4,6-trimethylphenyl)-1-piperazineacetamide]",melting point,,82.3 °C
"CNC(=O)C1CN(CCCC(c2ccc(F)cc2)c2ccc(F)cc2)CCN1CC(=O)Nc1c(C)cc(C)cc1C (stereo not shown) [Compound 2, 4-[4,4-bis(4-fluorophenyl)butyl]-2-[(methylamino)carbonyl]-N-(2,4,6-trimethylphenyl)-1-piperazineacetamide]",melting point,,90.2 °C
"NC(=O)[C@@H]1CN(CCCCC(c2ccc(F)cc2)c2ccc(F)cc2)CCN1CC(=O)Nc1c(Cl)cc(N)cc1Cl [Compound 13, S-(−)-2-(aminocarbonyl)-N-(4-amino-2,6-dichlorophenyl)-4-[5,5-bis(4-fluorophenyl)-pentyl]-1-piperazineacetamide]",mean duration of chest pain,[1],75.5 min
Cc1cccc(C)c1NC(=O)CN1CCN(CCCC(c2ccc(F)cc2)c2ccc(F)cc2)CC1 [lidoflazine],reaction time to thermal stimulation,[2],significantly increased
same,pain treshold to electrical stimulation of incisor teeth,[3],increased
same,pain treshold to electrical stimulation of canine teeth,[4],not
